Here are results for 4 molecules from patent US20230097801A1, “METHODS OF INCREASING CELL PHAGOCYTOSIS” (National Health Research Institutes, priority 2021, published 2023).

In series [1] the test system is CD47. The series is described as follows: Flow cytometry, anti-human CD47 2D3 control antibody binding on Raji cell surface. Type of series: cell-based. The settings on record: Raji cells. The protocol:
(§1) Antibody conjugates and extracellular domain of SIRPα used to analyze cell surface CD47 binding include anti-human CD47 CC2C6, 2D3, recombinant human SIRPα/CD172a Fc chimer protein, and anti-human IgG Fc. To determine inhibition of CD47 binding, cancer cells were treated with compounds of formula (I) at various concentrations for 4 days. Thereafter, the cells were washed with PBS containing 0.5% BSA (FACS buffer) followed by incubation with fluorochrome-labeled antibodies to human CD47 (i.e., CC2C6 and 2D3) at 1:50 dilution in FACS buffer for 30 minutes at 4° C. Compounds of formula (I) produced a dose-dependent inhibition of anti-CD47 CC2C6 antibody that recognized CD47 and SIRPα binding site on the tumor cell surface including B-cell lymphoma Raji cells, colon cancer cells DLD-1, and ovarian cancer SK-OV-3 cells (see FIGS. 1A, 1B, and 1C, respectively).
(In general: Flow cytometry measures light scatter and fluorescence of single cells or particles in a stream.)

Series [2] has as its system CD47. Description: Flow cytometry, anti-human CD47 CC2C6 antibody binding on DLD-1 cell surface. Type of series: cell-based. Particulars: for IC50: Colon Cancer (DLD-1 cells), 4 days treatment, read-out: IC50, inhibition of CC2C6 binding; for inhibition of binding of anti-human CD47 antibody CC2C6 (in words): DLD-1 cells. The protocol:
(§2) Binding between CD47 and SIRPα was studied by measuring the level of CD47 binding using any suitable method. Flow cytometric analysis is useful to quantify the level of binding of CD47 to antibody CC2C6, which is then subjected to an immune-staining procedure using fluorochrome-conjugated secondary antibody followed by analysis of the immune-staining signal with a flow cytometry instrument to obtain the level of the CD47-CC2C6 binding. In another method, analysis of CD47 is performed using SIRPα-Fc formed from SIRPα fused with human IgG1, which is then subjected to an immune-staining procedure using fluorochrome-conjugated secondary antibody against human IgG1, followed by analysis of the immune-staining signal. SIRPα is expressed on the surface of a myeloid cell such as macrophage, monocyte, neutrophil, or dendritic cell. Alternatively, SIRPα is fused with human IgG1 to form a SIRPα-Fc recombinant protein. […] An anti-cancer agent (e.g., rituximab) can be used together with a compound of formula (I). Useful anti-cancer agents are described above including anti-PD-L1 antibodies, anti-CD20 antibodies, anti-HER2 antibodies, anti-EGFR antibodies, and anti-CD47 antibodies. Other suitable anti-cancer agents are chemotherapeutic agents such as doxorubicin, epirubicin, idarubicin, methotrexate, mitoxantrone, oxaliplatin, and cyclophosphamide.
Human colon cancer DLD-1 cells were obtained from NHRI IBPR HTS Lab, Taiwan. DLD-1 cells were maintained under the same conditions described immediately above.
as §1

Series [3] in a line: Mouse pk profiles. The settings on record: for clearance / Cmax / bioavailability / half-life: plasma; for bioavailability: PO (30 mg/kg) vs IV (2 mg/kg); for half-life: read-out: T1/2 (h) Plasma (converted). Type of series: in vivo.
Series [4] has as its system CD47. Description: Flow cytometry, anti-human CD47 CC2C6 antibody binding on Raji cell surface. It counts as cell-based. Particulars: for IC50: B-cell Lymphoma (Raji cells), 4 days treatment, read-out: IC50, inhibition of CC2C6 binding; for inhibition of binding of anti-human CD47 antibody CC2C6 (in words): Raji cells. The protocol: as §2
Human B-cell lymphoma Raji cells were purchased from BCRC, Taiwan. Raji cells were maintained at 37° C. under 5% CO2 in RPMI-1640 medium (Hyclone, Marlborough, Mass.) supplemented with 10% fetal bovine serum (FBS) (SAFC, Sigma-Aldrich, St. Louis, Mo.) containing 2 mM L-glutamine (Hyclone, Marlborough, Mass.), 10 mM HEPES (Hyclone, Marlborough, Mass.) and 1 mM sodium pyruvate (Hyclone, Marlborough, Mass.).
as §1

Series [5] deals with CD47. Description: Flow cytometry, anti-human CD47 CC2C6 antibody binding on SK-OV-3 cell surface. Type of series: cell-based. Particulars: for inhibition of binding of anti-human CD47 antibody CC2C6 (in words): SK-OV-3 cells; for IC50: Ovarian Cancer (SK-OV3 cells), 4 days treatment, read-out: IC50, inhibition of CC2C6 binding. How it is done: as §2
SK-OV-3 cells were purchased from ATCC (Manassas, Va.). SK-OV-3 cells were maintained at 37° C. under 5% CO2 in McCoy's 5a medium (Gibco, ThermoFisher, Waltham, Mass.) with 10% fetal bovine serum (FBS) (Sigma-Aldrich, St Louis, Mo.), and 2 mM L-glutamine.
as §1

Series [6] has as its system human B-cell lymphoma Raji xenograft tumor. Description: Raji xenograft anti-tumor efficacy and survival study (3 weeks treatment). Type of series: in vivo, NOD/SCID mice. Particulars: Compound 34 100 mg/kg p.o. QD*5, rituximab 10 mg/kg i.p. 2QW. The source says: (§3) Human B-cell lymphoma Raji cells were used to evaluate the efficacy of Compound 34 and rituximab in treating cancer cells. Prior to injection into animals, the cancer cells were detected as free of Mycoplasma spp. NOD/SCID mice (BioLasco, Taiwan) were used for in vivo experiments due to their higher affinity of SIRPα to human CD47. The mice used in these studies were housed in Institutional Animal Care and Use Committees-approved facility at National Health Research Institutes in accordance with guidelines for the care and use of laboratory animals.
One million Raji cells in culture medium and matrigel (1:1, v/v) were injected subcutaneously into the left flank region of the mice (n=7 to 10 animals per group). Treatments were initiated after randomization with inclusion of tumors at approximately 100 mm^3. A dosing vehicle for Compound 34 was prepared using 10% DMA: 40% PEG400: 50% (1% CMC) (v/v/v) and was dosed orally (p.o.) at 100 mg/kg once a day, 5 days a week (Q.D.*5). Rituximab (Roche-Genentech, South San Francisco, Calif.) stock solution was diluted with PBS and dosed at 10 mg/kg twice a week (2QW) by intraperitoneal (i.p.) injection.
To evaluate anti-tumor efficacy and survival rates, mice were treated with vehicle control, 10 mg/kg rituximab (2QW, i.p.), 100 mg/kg Compound 34 (QD*5), or rituximab in combination with Compound 34. Treatment was discontinued at the end of 3 weeks. The mice were monitored for cancer growth and body weight once a week. Cancer growth was measured by volume with an electronic caliper. The volume was calculated as L×W^2/2, in which L is the length of the tumor and W is its width. Tumor size and animal body weight were measured once a week after cancer cell inoculation. Cancer response at the end of the study was calculated as tumor growth inhibition (TGI) using (1−T/C)*100, in which T is the mean tumor volume (mm^3) of the test group, and C is the mean tumor volume (mm^3) of the vehicle-treated group. […] For the survival study, treatment was discontinued at the end of 3 weeks. Thereafter, mice were followed up for tumor growth and body weight once a week. The mice were then sacrificed when tumor volume reached 2,000 mm^3 or body weight loss was greater than 10%. Kaplan-Meier plots were used as the study end point to calculate percentage of animals remaining in the study in term of the time. The median survival days for vehicle control and Compound 34 were 15.5 days and 18 days, respectively (FIG. 5E). Rituximab prolonged median survival days to 28 days after treatment discontinued (FIGS. 5C and 5E). Importantly, the combination of rituximab and Compound 34 further prolonged median survival days to 47 days (FIGS. 5D and 5E).

Series [7] shares this test system. Description: Raji xenograft dose-dependent efficacy of Compound 34 with rituximab (6 weeks). Type of series: in vivo, NOD/SCID mice. Particulars: rituximab 10 mg/kg alone.
From the text: as §3
To evaluate dose-dependent anti-tumor efficacy of Compound 34 in combination with rituximab, mice were treated with vehicle control, rituximab, or rituximab in combination with Compound 34 for 6 weeks. A dosing vehicle for Compound 34 was prepared using 10% DMA: 40% PEG400: 50% (1% CMC) (v/v/v) and was dosed orally (p.o.) at 10 mg/kg, 30 mg/kg, and 100 mg/kg once a day, 5 days a week (Q.D.*5). Rituximab (Roche-Genentech, South San Francisco, Calif.) stock solution was diluted with PBS and dosed at 10 mg/kg twice a week (2QW) by intraperitoneal (i.p.) injection. Cancer growth was measured by volume with an electronic caliper. The volume was calculated as L×W^2/2, in which L is the length of the tumor and W is its width. Tumor size and animal body weight were measured once a week after cancer cell inoculation. Cancer response at the end of the study was calculated as tumor growth inhibition (TGI) using (1−T/C)*100, in which T is the mean tumor volume (mm^3) of the test group, and C is the mean tumor volume (mm^3) of the vehicle-treated group. The treatment response rate were classified into 4 categories: complete regression (CR), in which the tumor was undetectable at the end of study; partial regression (PR), in which the tumor volume was less than or equal to 30% of the initial tumor volume at the end of study; stable disease (SD), in which the tumor volume was between […] of the initial tumor volume at the end of study; progression disease (PD), in which the tumor volume was greater than 50% of the initial tumor volume at the end of study. An overall response rate (ORR) is calculated based on the CR and PR groups. […] When treated with Compound 34 (at 100 mg/kg) in combination with rituximab, 6 out of 10 mice (60%) fell under the CR group, and 1 out of 10 mice (10%) fell under the PR group. On the other hand, no animals had CR (0%) and only 2 out of 10 mice (20%) were PR by rituximab (at 10 mg/kg), resulting in 70% ORR by the combination treatment and 20% by antibody only.

For `O=C1NC[C@H](c2ccc(-c3cnc(C(F)(F)F)s3)cc2)N1c1ccc2[nH]cnc2c1` [Compound 30], in series [1], the “inhibition of binding of anti-human CD47 antibody 2D3 (in words)” value is “did not inhibit”. In addition, in series [2], the IC50 is 1010 nM and the “inhibition of binding of anti-human CD47 antibody CC2C6 (in words)” value is “effectively inhibited”. Further, in series [3] (IV (2 mg/kg)), the “AUC Plasma” value stood at 3037 ng·h/g and the clearance was found to be 12.7 mL/min/kg. In series [3] (PO (30 mg/kg)), the “AUC Plasma” value worked out at 21170 ng·h/g, the Cmax was determined as 1780 ng/mL and the half-life was 5.2 h. Besides, the bioavailability in series [3] turned out to be 47%. For the same molecule, in series [4], the IC50 was determined as 840 nM and the “inhibition of binding of anti-human CD47 antibody CC2C6 (in words)” value is “effectively inhibited”. Further, the “inhibition of binding of anti-human CD47 antibody CC2C6 (in words)” value in series [5] is “effectively inhibited”.

Take `O=C1NC[C@H](c2ccc(-c3csc(C(F)(F)F)c3)cc2)N1c1ccc2[nH]cnc2c1` [Compound 32]: the “inhibition of binding of anti-human CD47 antibody 2D3 (in words)” value in series [1] was “did not inhibit”. Also, in series [2], the IC50 was found to be 790 nM and the “inhibition of binding of anti-human CD47 antibody CC2C6 (in words)” value is “effectively inhibited”. In addition, in series [3] (IV (2 mg/kg)), the “AUC Plasma” value is 8185 ng·h/g and the clearance stood at 4 mL/min/kg. In series [3] (PO (30 mg/kg)), the “AUC Plasma” value is 68659 ng·h/g, the Cmax is 3720 ng/mL and the half-life is 12.7 h. The molecule also showed a bioavailability in series [3] of 56%. Further, in series [4], the IC50 was determined as 1380 nM and the “inhibition of binding of anti-human CD47 antibody CC2C6 (in words)” value is on record as “effectively inhibited”. In series [5], the IC50 stood at 200 nM and the “inhibition of binding of anti-human CD47 antibody CC2C6 (in words)” value is “effectively inhibited”.

Regarding `CCCOc1ccc([C@H]2CNC(=O)N2c2ccc3[nH]cnc3c2)cc1` [PQ912, reference compound], the IC50 in series [2] stood at 3190 nM. Also, in series [3] (IV (2 mg/kg)), the “AUC Plasma” value was found to be 520 ng·h/g and the clearance turned out to be 64 mL/min/kg. In addition, in series [3] (PO (30 mg/kg)), the “AUC Plasma” value came out at 6359 ng·h/g, the Cmax was found to be 2020 ng/mL and the half-life was 2.8 h. Moreover, the bioavailability in series [3] was determined as 82%. Also, the IC50 in series [4] turned out to be 5950 nM. Besides, the IC50 in series [5] worked out at 150 nM.

For the molecule “Rituximab: an anti-human CD20 antibody (Roche-Genentech)”, the “tumor growth inhibition (TGI, % of control)” value in series [6] (3 weeks) came out at 78.5%. Moreover, the median survival days in series [6] (treatment discontinued at 3 weeks) is given as 28 days. In series [7], the “CR (complete regression), rate” value is recorded as 0 (0%); the “ORR (overall response rate, CR and PR), rate” value is given as 20%; the “PD (progression disease), rate” value was 80%; the “PR (partial regression), rate” value was 20%. Moreover, in series [7] (of 10 mice), the “CR (complete regression), number of mice” value is on record as 0 (0%); the “ORR (overall response rate, CR and PR), number of mice” value stood at 2; the “PD (progression disease), number of mice” value was determined as 8; the “PR (partial regression), number of mice” value is 2. Also, in series [7] (listed as rituximab), the “CR (complete regression), rate” value was found to be 0%.

By IC50 is commonly meant the concentration that inhibits the measured activity by half. Usually clearance stands for the volume of plasma or blood freed of the substance per unit of time. Lower therefore signals inefficient removal. For orientation: Cmax means the maximum level reached in the sampled fluid or tissue. One may read the bioavailability as dose-corrected exposure relative to a reference, in per cent. Higher therefore signals much systemic uptake.
